Consider seven compounds from patent US20250304563A1, “ACTIVATORS OF EFFECTOR T CELLS” (Orum Therapeutics, Inc., priority 2022, published 2025).

The test system of assay [1] is Human primary T cells. Put plainly: T cell activation: secreted IL-2. The assay is classed as cell-based. The following applies: 48 hours, fold over background normalized to Compound 141A; for IL-2 1 nM: 1 nM compound; for IL-2 10 nM: 10 nM compound; for IL-2 100 nM: 100 nM compound. As to the method: (§1) Human primary T cells were isolated from commercially available frozen peripheral blood mononuclear cells (HemaCare Corporation) or from fresh LeukoPaks (Research Blood Components). T cells were isolated through depletion of non-T cells using negative selection kit according to the manufacturer's protocol (Miltenyi Biotec, Human Pan T Cell Isolation Kit, 130-096-535). Isolated cells were cultured overnight at 37° C. with 5% CO2 and plated at 1×10^5 cells per well in XVivo-15 serum-free media (Lonza, 04-418Q) into 96 well plates coated with anti-CD3 (OKT3) antibody (ThermoFisher, 16-0037-85). To coat the plates for T cell capture, anti-CD3 antibody was diluted in PBS at 10 μg/mL and 100 μl added to each well. Plates were incubated at 4° C. overnight or at 37° C. for 2 hours and washed once with PBS before use. Serial dilutions of each compound were added in duplicates to the T cells to assess their effect on T cell activation. T cells treated with 5 μg/mL of CD28 antibody (ThermoFisher, 16-0289-85) or T cells stimulated by CD3 only were used as a control. Plates were incubated with the Cbl-b inhibitors for 48 hours at 37° C. with 5% CO2, and supernatants were subsequently analyzed for levels of the activation induced secreted cytokines IL-2 or IFN-y (BD Biosciences CBA Flex Beads, 558269, 558270). T cells were additionally stained with anti-CD69 antibody (Invitrogen, 12-0699-42 which labels a T cell activation associated membrane protein to and surface expression was measured by flow cytometry (ThermoFisher Attune NxT).
(§2) To control for natural inter-donor variability in T cell responses intrinsic to using primary human donor derived cells, secreted IL-2 and IFN-y measurements for each test compound were reported as the fold increase of the compound treated levels over background (antiCD3/CD28 treatment only) normalized to the values obtained for Compound 141A. Results for compound treatment-induced changes in CD69 levels are similarly reported as the fold increase due to compound treatment over anti-CD3 stimulated background only, normalized to values obtained for Compound 141A.
Normalized T cell IL-2 responses were sorted into ranges as follows: fold over background values between 1.41 and 1.8: range “X”, between 0.80 and 1.40: range “A”, values between 0.31 and 0.79: range “B” values between 0.10 and 0.30: range “C”, values between 0.01 and 0.09: range “D.”

Assay [2] relates to Human primary T cells. Description: T cell activation: CD69 surface expression by flow cytometry. The assay is classed as cell-based. The following applies: fold over anti-CD3 stimulated background normalized to Compound 141A; for CD69 10 nM: 10 nM compound; for CD69 100 nM: 100 nM compound. As to the method:
as §1, §2
Similarly, bins for normalized CD69 levels were sorted into ranges as follows: fold over background values between 1.11 and 1.6: range “X”, values between 0.81 and 1.10: range “A”; values between 0.61 and 0.80: range “B;” values between 0.30 and 0.60: range “C”.

Assay [3] deals with Human primary T cells. Put plainly: T cell activation: secreted IFN-y. The format is cell-based. The settings on record: 48 hours, fold over background normalized to Compound 141A; for IFN-y 1 nM: 1 nM compound; for IFN-y 10 nM: 10 nM compound; for IFN-y 100 nM: 100 nM compound. As to the method:
as §1, §2
Normalized T cell IFN-y responses were sorted into ranges as follows: fold over background between 1.10 and 2.00: range “A”, values between 0.31 and 1.00: range “B;” values between 0.10 and 0.30: range “C”, and values between 0.01 and 0.09: range “D.”

For assay [4], the target named is Cbl-b (36-427 aa truncated form, N-terminus Avi-tag) (Homo sapiens (Human), UniProt Q13191). Description: Cbl-b binding: TR-FRET displacement of BODIPY-FL probe. In a few lines:
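Avi-tagged Cbl-b 36-427 preincubated 1 h at RT with streptavidin-terbium in HEPES pH 7.5/NaCl/Triton/BSA/TCEP buffer, then 1 uM BODIPY-FL inhibitor probe plus compound added for 1 h. Probe displacement read by TR-FRET; IC50 fitted.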

Chain of Cbl-b (36-427 aa truncated form, N-terminus Avi-tag) (Q13191 36-427): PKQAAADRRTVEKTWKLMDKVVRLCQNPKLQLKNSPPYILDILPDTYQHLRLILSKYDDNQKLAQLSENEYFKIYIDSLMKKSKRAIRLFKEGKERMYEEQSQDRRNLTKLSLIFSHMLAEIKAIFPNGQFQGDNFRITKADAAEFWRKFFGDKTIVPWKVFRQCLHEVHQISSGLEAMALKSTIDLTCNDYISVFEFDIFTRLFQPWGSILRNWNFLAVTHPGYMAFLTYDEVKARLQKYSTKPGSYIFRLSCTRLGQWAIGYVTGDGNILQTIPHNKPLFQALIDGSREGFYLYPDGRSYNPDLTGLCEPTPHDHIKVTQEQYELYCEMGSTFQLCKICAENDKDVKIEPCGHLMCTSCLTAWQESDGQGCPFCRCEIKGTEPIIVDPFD

With `CCSc1cc(C2(c3nncn3C)CC(C)C2)cc(N2Cc3c(cc(CN4CCC[C@H](C)C4)cc3C(F)(F)F)C2=O)n1` (stereo partly drawn) [Compound 113, 2-[6-(ethylsulfanyl)-4-[(1s,3r)-3-methyl-1-(4-methyl-1,2,4-triazol-3-yl)cyclobutyl]pyridin-2-yl]-6-{[(3S)-3-methylpiperidin-1-yl]methyl}-4-(trifluoromethyl)-3H-isoindol-1-one], in the assay on Human primary T cells [1], the “IL-2 1 nM” value was “C (values between 0.10 and 0.30: range “C”)”; the “IL-2 10 nM” value is “B (values between 0.31 and 0.79: range “B”)”; the “IL-2 100 nM” value is “B (values between 0.31 and 0.79: range “B”)”. In the assay on Human primary T cells [2], the “CD69 10 nM” value was “B (values between 0.61 and 0.80: range “B;”)”; the “CD69 100 nM” value is “A (values between 0.81 and 1.10: range “A”)”. For the same compound, in the assay on Human primary T cells [3], the “IFN-y 1 nM” value is “C (values between 0.10 and 0.30: range “C”)”; the “IFN-y 10 nM” value was “B (values between 0.31 and 1.00: range “B;”)”; the “IFN-y 100 nM” value was “B (values between 0.31 and 1.00: range “B;”)”. In assay [4], this compound had an IC50 of 20 to 100 nM.

For the compound `C[C@H]1CCCN(Cc2cc3c(c(C(F)(F)F)c2)CN(c2cc(C4(Cc5nncn5C)COC4)cc(C#N)n2)C3=O)C1` [Compound 115, 4-{3-[(4-methyl-1,2,4-triazol-3-yl)methyl]oxetan-3-yl}-6-(6-{[(3S)-3-methylpiperidin-1-yl]methyl}-1-oxo-4-(trifluoromethyl)-3H-isoindol-2-yl)pyridine-2-carbonitrile], in the assay with Human primary T cells [1], the “IL-2 1 nM” value is “C (values between 0.10 and 0.30: range “C”)”; the “IL-2 10 nM” value was “C (values between 0.10 and 0.30: range “C”)”; the “IL-2 100 nM” value was “B (values between 0.31 and 0.79: range “B”)”. Further, in the assay on Human primary T cells [2], the “CD69 10 nM” value is “C (values between 0.30 and 0.60: range “C”)”; the “CD69 100 nM” value is “B (values between 0.61 and 0.80: range “B;”)”. In addition, in the assay with Human primary T cells [3], the “IFN-y 1 nM” value was “C (values between 0.10 and 0.30: range “C”)”; the “IFN-y 10 nM” value was “C (values between 0.10 and 0.30: range “C”)”; the “IFN-y 100 nM” value is “B (values between 0.31 and 1.00: range “B;”)”. The half-maximal inhibitory concentration (IC50) in assay [4] lay within 100 to 1000 nM.

In the case of `C=CC(=O)NCc1cc(C2(Cc3nncn3C)COC2)cc(N2Cc3c(cc(CN4CCC[C@H](C)C4)cc3C(F)(F)F)C2=O)n1` [Compound 116, N-[(4-{3-[(4-methyl-1,2,4-triazol-3-yl)methyl]oxetan-3-yl}-6-(6-{[(3S)-3-methylpiperidin-1-yl]methyl}-1-oxo-4-(trifluoromethyl)-3H-isoindol-2-yl)pyridin-2-yl)methyl]prop-2-enamide], in the assay with Human primary T cells [1], the “IL-2 1 nM” value was “C (values between 0.10 and 0.30: range “C”)”; the “IL-2 10 nM” value was “C (values between 0.10 and 0.30: range “C”)”; the “IL-2 100 nM” value was “B (values between 0.31 and 0.79: range “B”)”. In addition, in the assay on Human primary T cells [2], the “CD69 10 nM” value is “C (values between 0.30 and 0.60: range “C”)”; the “CD69 100 nM” value is “B (values between 0.61 and 0.80: range “B;”)”. In the assay with Human primary T cells [3], the “IFN-y 1 nM” value is “C (values between 0.10 and 0.30: range “C”)”; the “IFN-y 10 nM” value was “C (values between 0.10 and 0.30: range “C”)”; the “IFN-y 100 nM” value was “B (values between 0.31 and 1.00: range “B;”)”. The compound further came in with an IC50 in assay [4] of 5.01 to 20 nM.

Consider `CCNc1cc(C2(Cc3nncn3C)COC2)cc(N2Cc3c(cc(C(CSC)N4CCC[C@H](C)C4)cc3C(F)(F)F)C2=O)n1.O=C(O)C(F)(F)F` (stereo partly drawn) [Compound 117, 2-[6-(ethylamino)-4-{3-[(4-methyl-1,2,4-triazol-3-yl)methyl]oxetan-3-yl}pyridin-2-yl]-6-{1-[(3S)-3-methylpiperidin-1-yl]-2-(methylsulfanyl)ethyl}-4-(trifluoromethyl)-3H-isoindol-1-one; trifluoroacetic acid], for which, in the assay on Human primary T cells [1], the “IL-2 1 nM” value is “C (values between 0.10 and 0.30: range “C”)”; the “IL-2 10 nM” value is “C (values between 0.10 and 0.30: range “C”)”; the “IL-2 100 nM” value is “C (values between 0.10 and 0.30: range “C”)”. In the assay with Human primary T cells [2], the “CD69 10 nM” value is “C (values between 0.30 and 0.60: range “C”)”; the “CD69 100 nM” value was “B (values between 0.61 and 0.80: range “B;”)”. For the same compound, in the assay on Human primary T cells [3], the “IFN-y 1 nM” value was “C (values between 0.10 and 0.30: range “C”)”; the “IFN-y 10 nM” value was “C (values between 0.10 and 0.30: range “C”)”; the “IFN-y 100 nM” value was “B (values between 0.31 and 1.00: range “B;”)”. In assay [4], this compound displayed an IC50 of 20 to 100 nM.

Take `C[C@H]1CCCN(Cc2cc3c(c(C(F)(F)F)c2)CN(c2cc(C4(Cc5nncn5C)COC4)cc(NCCN=[N+]=[N-])n2)C3=O)C1` [Compound 118, 2-{6-[(2-azidoethyl)amino]-4-{3-[(4-methyl-1,2,4-triazol-3-yl)methyl]oxetan-3-yl}pyridin-2-yl}-6-{[(3S)-3-methylpiperidin-1-yl]methyl}-4-(trifluoromethyl)-3H-isoindol-1-one]: in the assay with Human primary T cells [1], the “IL-2 1 nM” value is “B (values between 0.31 and 0.79: range “B”)”; the “IL-2 10 nM” value is “B (values between 0.31 and 0.79: range “B”)”; the “IL-2 100 nM” value is “A (between 0.80 and 1.40: range “A”)”. In the assay on Human primary T cells [2], the “CD69 10 nM” value was “A (values between 0.81 and 1.10: range “A”)”; the “CD69 100 nM” value was “A (values between 0.81 and 1.10: range “A”)”. Further, in the assay with Human primary T cells [3], the “IFN-y 1 nM” value was “B (values between 0.31 and 1.00: range “B;”)”; the “IFN-y 10 nM” value is “A (fold over background between 1.10 and 2.00: range “A”)”; the “IFN-y 100 nM” value is “A (fold over background between 1.10 and 2.00: range “A”)”. In addition, the IC50 in assay [4] was 1 to 5 nM.

On to `C[C@H]1CCCN(Cc2cc3c(c(C(F)(F)F)c2)CN(c2cc(C4(Cc5nncn5C)COC4)cc(NCC#N)n2)C3=O)C1` [Compound 119, (S)-2-((4-(3-((4-methyl-4H-1,2,4-triazol-3-yl)methyl)oxetan-3-yl)-6-(6-((3-methylpiperidin-1-yl)methyl)-1-oxo-4-(trifluoromethyl)isoindolin-2-yl)pyridin-2-yl)amino)acetonitrile], for which, in the assay on Human primary T cells [1], the “IL-2 1 nM” value was “C (values between 0.10 and 0.30: range “C”)”; the “IL-2 10 nM” value is “B (values between 0.31 and 0.79: range “B”)”; the “IL-2 100 nM” value was “B (values between 0.31 and 0.79: range “B”)”. For the same compound, in the assay on Human primary T cells [2], the “CD69 10 nM” value is “B (values between 0.61 and 0.80: range “B;”)”; the “CD69 100 nM” value was “A (values between 0.81 and 1.10: range “A”)”. Also, in the assay with Human primary T cells [3], the “IFN-y 1 nM” value is “C (values between 0.10 and 0.30: range “C”)”; the “IFN-y 10 nM” value was “B (values between 0.31 and 1.00: range “B;”)”; the “IFN-y 100 nM” value is “B (values between 0.31 and 1.00: range “B;”)”. This compound also returned an IC50 in assay [4] of 1 to 5 nM.

On to `C[C@H]1CCCN(Cc2cc3c(c(C(F)(F)F)c2)CN(c2cc(C4(Cc5nncn5C)COC4)cc(SCC(O)CO)n2)C3=O)C1.O=CO` (stereo partly drawn) [Compound 120, 2-{6-[(2,3-dihydroxypropyl)sulfanyl]-4-{3-[(4-methyl-1,2,4-triazol-3-yl)methyl]oxetan-3-yl}pyridin-2-yl}-6-{[(3S)-3-methylpiperidin-1-yl]methyl}-4-(trifluoromethyl)-3H-isoindol-1-one; formic acid], for which, in the assay on Human primary T cells [1], the “IL-2 1 nM” value is “C (values between 0.10 and 0.30: range “C”)”; the “IL-2 10 nM” value is “C (values between 0.10 and 0.30: range “C”)”; the “IL-2 100 nM” value is “C (values between 0.10 and 0.30: range “C”)”. Moreover, in the assay on Human primary T cells [2], the “CD69 10 nM” value is “C (values between 0.30 and 0.60: range “C”)”; the “CD69 100 nM” value was “C (values between 0.30 and 0.60: range “C”)”. In the assay with Human primary T cells [3], the “IFN-y 1 nM” value was “C (values between 0.10 and 0.30: range “C”)”; the “IFN-y 10 nM” value is “C (values between 0.10 and 0.30: range “C”)”; the “IFN-y 100 nM” value was “C (values between 0.10 and 0.30: range “C”)”. Further, the IC50 in assay [4] was 20 to 100 nM.
